# Assay results published in patent publication US4769447A, “Gamma-Glutamyl-4-azoanilides” (Boehringer Mannheim GmbH, priority 1986, dated 1988).
# Counter-ions that a name gives are not always drawn.
# What was measured:
# [1] = Absorption maxima (λmax., Δλmax.) and extinction coefficient of substrates and liberated coloured materials; type: physicochemical; conditions: for Δλmax. = λmax. (coloured material) - λmax. (substrate): difference of the absorption maxima; for λmax. (coloured material): coloured material liberated from the substrate
# Source text: Thus, for example, the difference of the absorption maxima of the known substrate γ-glutamyl-3-carboxy-4-nitroanilide (λmax. 317 nm) and of the coloured material obtained therefrom, i.e. 3-carboxy-4-nitroaniline(λmax. 380 nm) is 63 nm. In contradistinction thereto, the compounds according to the present invention of general formula (I) display substantially greater differences between the absorption spectra of the substrate and of the coloured material liberated enzymatically therefrom. As a rule, this difference is from 80 to 110 nm.
# Δλmax. hereby means the difference between λmax. (coloured material)-λmax. (substrate).
# γ-GT [2] = assay: Determination of the activity of γ-GT at 25° and 37° C. with S1 and L-Glupa C in human serum pools and control serum; type: biochemical; conditions: control serum PPU 516
# γ-GT [3] = target: T1, γ-GT (Homo sapiens, UniProt P19440); assay: as above; type: biochemical
# T1 construct: in three mixtures of human sera; from tissue; host or cells: human serum (three pools of different activity); also a control serum of unstated origin
# γ-GT [4] = assay: as above; type: biochemical; conditions: control serum PPU 516; 25° C.
# Procedure: (§1) 21.78 g. Glycylglycine were dissolved in about 900 ml. distilled water, the pH was adjusted to 7.9 with 2N aqueous sodium hydroxide solution, the amount of substrate calculated for a concentration of 1 mmole/liter was dissolved therein and the solution made up to 1000 ml. with distilled water. End concentration in the test:
# (§2) 2.0 ml. of the reagent described in (a) was pipetted into a cuvette, tempered to 25° C. and mixed with 0.2 ml. of sample. The extinction increase per minute was measured at an apropriate wavelength.
# (§3) One international unit (U) is the enzyme activity which converts 1 μmole of substrate per minute at 25° C. The activity of the γ-glutamyl transferase in U/liter in the sample is calculated according to the following equation: [formula] wherein ΔE/min is the extinction increase at an appropriate wavelength per minute, V is the batch volume in ml., v is the sample volume in ml., ε is the extinction coefficient in cm^2 μmol^-1 and d is the layer thickness of the cuvette in cm.
# (§4) The substrates used were L-Glupa C and S1.
# γ-GT [5] = target: T1, γ-GT; assay: as above; type: biochemical; conditions: 25° C.
# Procedure: as §1, §2, §3, §4
# [6] = target: T2, γ-glutamyl transferase (γ-GT) (Homo sapiens, UniProt P19440); assay: Determination of the activity of γ-glutamyl transferase in a control serum at 25° C. with different substrates; type: biochemical; conditions: for extinction coefficient: at the measurement wavelength: 546 nm (S1, S8, S9), 578 nm (S5), 405 nm (L-Glupa C); for γ-GT activity found in control serum (U/liter at 25° C.): same control serum, substrate 1 mmole/liter, glycylglycine 150 mmole/liter, pH 7.9
# T2 construct: host or cells: control serum
# Procedure: as §1, §2, §3
# [7] = routine use; cited from earlier work
# T1 sequence (P19440 1-380 limits assumed): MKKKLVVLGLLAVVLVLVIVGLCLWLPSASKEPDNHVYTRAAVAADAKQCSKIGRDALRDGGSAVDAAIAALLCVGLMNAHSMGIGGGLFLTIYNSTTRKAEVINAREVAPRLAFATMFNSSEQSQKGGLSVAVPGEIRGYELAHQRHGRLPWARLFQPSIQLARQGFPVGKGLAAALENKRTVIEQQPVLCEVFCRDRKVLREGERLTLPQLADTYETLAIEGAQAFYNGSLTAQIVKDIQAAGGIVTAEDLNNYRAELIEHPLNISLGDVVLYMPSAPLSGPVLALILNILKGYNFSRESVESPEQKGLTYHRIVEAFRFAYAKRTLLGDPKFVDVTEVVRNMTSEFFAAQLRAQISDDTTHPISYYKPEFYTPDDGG
# T1 sequence (P19440 381-569 limits assumed): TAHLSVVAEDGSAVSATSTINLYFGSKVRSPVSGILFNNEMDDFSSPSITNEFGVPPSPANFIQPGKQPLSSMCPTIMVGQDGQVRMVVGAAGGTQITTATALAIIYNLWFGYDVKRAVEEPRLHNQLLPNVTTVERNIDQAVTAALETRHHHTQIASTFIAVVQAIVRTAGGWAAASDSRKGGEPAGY
# T2 sequence (P19440 381-569 limits assumed): as above
# T2 sequence (P19440 1-380 limits assumed): as the sequence (P19440 1-380 limits assumed) above
Compound,λmax. (substrate) [1],extinction coefficient [6],γ-GT activity found in control serum (U/liter at 25° C.) [6],Δλmax. = λmax. (coloured material) - λmax. (substrate) [1],also measured
"NC(CCC(=O)Nc1ccc(N=Nc2ccc([N+](=O)[O-])cc2)c(C(=O)O)c1)C(=O)O (centres unmarked) [S3, 2-amino-5-[(3-carboxyl-4-(4-nitrophenyl)-azophenyl]-amino]-5-oxopentnoic acid diammonium salt]",314 nm,–,–,–,–
"CCCCSc1nnc(N=Nc2ccc(NC(=O)CCC(N)C(=O)O)cc2OCC(=O)O)s1 (centres unmarked) [S12, 2-Amino-5-[[4-(2-butylthio-1,3,4-thiadiazol-5-yl)-3-carboxymethoxyazophenyl]-amino]-5-oxopentanoic acid diammonium salt]",424 nm,–,–,–,–
"N[C@@H](CCC(=O)Nc1ccc([N+](=O)[O-])c(C(=O)O)c1)C(=O)O [L-Glupa C, L-γ-glutamyl-3-carboxy-4-nitroanilide, reference compound]",317 nm,9.5 cm^2 μmol^-1,128 U/liter,63 nm,"γ-GT activity, control serum PPU 516 (γ-GT [2]): 211 U/l.; γ-GT activity, human serum pool 1 (γ-GT [3]): 57 U/l.; γ-GT activity, human serum pool 2 (γ-GT [3]): 106 U/l.; γ-GT activity, human serum pool 3 (γ-GT [3]): 323 U/l.; γ-GT activity, control serum PPU 516 (γ-GT [4]): 139 U/l.; γ-GT activity, human serum pool 1 (γ-GT [5]): 35 U/l.; γ-GT activity, human serum pool 2 (γ-GT [5]): 63 U/l.; γ-GT activity, human serum pool 3 (γ-GT [5]): 190 U/l."
"N.N.NC(CCC(=O)Nc1ccc(N=Nc2snc3cc([N+](=O)[O-])ccc23)c(OCC(=O)O)c1)C(=O)O (centres unmarked) [S11, 2-Amino-5-[[3-carboxymethoxy-4-(6-nitro-2,1-benzisothiazol-3-yl)-azophenyl]-amino]-5-oxopentanoic acid diammonium salt]",453 nm,–,–,107 nm,–
"Cc1c(C#N)sc(N=Nc2ccc(NC(=O)CCC(N)C(=O)O)cc2OCC(=O)O)c1C#N.N.N (centres unmarked) [S6, 2-Amino-5-[[3-carboxymethoxy-4-(2,4-dicyano-3-methyl-5-thienyl)-azophenyl]-amino]-5-oxopentanoic acid diammonium salt]",448 nm,–,–,–,–
"Cc1c(C#N)sc(N=Nc2ccc(NC(=O)CCC(N)C(=O)O)cc2CCC(=O)O)c1C#N.N.N (centres unmarked) [S5, 2-Amino-5-[[3-(2-carboxyethyl)-4-(2,4-dicyano-3-methyl-5-thienyl)-azophenyl]-amino]-5-oxopentanoic acid diammonium salt]",424 nm,8.9 cm^2 μmol^-1,77 U/liter,106 nm,–
"CCOc1ccc2nc(N=Nc3ccc(NC(=O)CCC(N)C(=O)O)cc3OCC(=O)O)sc2c1.N.N (centres unmarked) [S13, 2-Amino-5-[[3-carboxymethoxy-4-(6-ethoxy-2-benzothiazolyl)-azophenyl]-amino]-5-oxopentanoic acid diammonium salt]",449 nm,–,–,–,–
2-Amino-5-[[4-(2-cyano-4-nitrophenyl)-azo-3-(2-carboxyethoxy)-phenyl]-amino]-5-oxopentanoic acid diammonium salt [S2],414 nm,–,–,–,–
"N.N.NC(CCC(=O)Nc1ccc(N=Nc2cc(Cl)c([N+](=O)[O-])cc2Cl)c(OCC(=O)O)c1)C(=O)O (centres unmarked) [S4, 2-Amino-5-[[4-(2,5-dichloro-4-nitrophenyl)-azo-3-(carboxymethoxy)-phenyl]-amino]-5-oxopentanoic acid diammonium salt]",402 nm,–,–,–,–
"Nc1ccc([N+](=O)[O-])c(C(=O)O)c1 [3-carboxy-4-nitroaniline, reference compound]",–,–,–,–,λmax. (coloured material) [1]: 380 nm
NC(CCC(=O)Nc1ccc([N+](=O)[O-])cc1)C(=O)O (centres unmarked) [γ-glutamyl-p-nitroanilide],–,–,–,–,solubility (known substrate) [7]: poor solubility; stability (known substrate) [7]: instability
"Cc1cc(NC(=O)CCC(N)C(=O)O)ccc1N=Nc1nc(C)c(C(=O)O)s1 (centres unmarked) [S7, 2-Amino-5-[[4-(5-carboxy-4-methyl-2-thiazolyl)-3-methylazophenyl]-amino]-5-oxopentanoic acid diammonium salt]",412 nm,–,–,–,–
"N.N.NC(CCC(=O)Nc1ccc(N=Nc2nccs2)c(CCC(=O)O)c1)C(=O)O (centres unmarked) [S9, 2-Amino-5-[[3-(2-carboxyethyl)-4-(2-thiazolyl)azophenyl]amino]-5-oxopentanoic acid diammonium salt]",394 nm,2.8 cm^2 μmol^-1,160 U/liter,–,–
"C[n+]1ccsc1N=Nc1ccc(NC(=O)CCC(N)C(=O)[O-])cc1CCC(=O)O.N (centres unmarked) [S10, 2-Amino-5-[[3-(2-carboxylatoethyl)-4-(3-methylthiazolium-2-yl)-azophenyl]-amino]-5-oxopentanoic acid ammonium salt]",402 nm,–,–,–,λmax. (coloured material) [1]: 486 nm; ε (coloured material) ([1]; printed after λmax. (coloured material)=486 nm): 15.5 cm^2 μmol^-1
"N.N.N#Cc1cc([N+](=O)[O-])ccc1N=Nc1ccc(NC(=O)CCC(N)C(=O)O)cc1CCC(=O)O (centres unmarked) [S1, 2-Amino-5-[[4-(2-cyano-4-nitrophenyl)-azo-3-(2-carboxyethyl)-phenyl]-amino]-5-oxopentanoic acid diammonium salt]",394 nm,7.8 cm^2 μmol^-1,144 U/liter,94 nm,"γ-GT activity, control serum PPU 516 (γ-GT [2]): 268 U/l.; γ-GT activity, human serum pool 1 (γ-GT [3]): 96 U/l.; γ-GT activity, human serum pool 2 (γ-GT [3]): 176 U/l.; γ-GT activity, human serum pool 3 (γ-GT [3]): 490 U/l.; γ-GT activity, control serum PPU 516 (γ-GT [4]): 134 U/l.; γ-GT activity, human serum pool 1 (γ-GT [5]): 42 U/l.; γ-GT activity, human serum pool 2 (γ-GT [5]): 76 U/l.; γ-GT activity, human serum pool 3 (γ-GT [5]): 220 U/l."
"Cc1nc(N=Nc2ccc(NC(=O)CCC(N)C(=O)O)cc2CCC(=O)O)sc1C#N.N.N (centres unmarked) [S8, 2-Amino-5-[[3-(2-carboxyethyl)-4-(5-cyano-4-methyl-2-thiazolyl)-azophenyl]-amino]-5-oxopentanoic acid diammonium salt]",420 nm,25.2 cm^2 μmol^-1,101 U/liter,100 nm,–
